System: extensive plaque psoriasis on the trunk
Assay: one patient case: once-daily topical application on the whole trunk
Assay type: in vivo, human
Conditions: same patient; for effect of earlier treatments on redness and psoriasis: regular treatment before the composition (UVA, then hydrocortisone, then Acitretine); for status upon cessation of earlier treatments: upon cessation of earlier treatment
Text: The composition has been evaluated in one patient case. A […], presenting extensive plaque psoriasis on the trunk for several years (illustration 1), was regularly treated with UVA, then hydrocortisone, then Acitretine.
They were provided with the composition according to the invention to apply once daily on the whole trunk. No concomitant treatment for psoriasis or else was used.
After 6 months, treatment with the composition was discontinued. Several months after discontinuation, the patient was questioned regarding the status of the disease.

Row | SMILES | effect of earlier treatments on redness and psoriasis | status upon cessation of earlier treatments
1 | COc1cc(C)c(/C=C/C(C)=C/C=C/C(C)=C/C(=O)O)c(C)c1C [Acitretine] | reduced redness, but never the psoriasis itself | redness came back
2 | C[C@]12CCC(=O)C=C1CC[C@@H]1[C@@H]2[C@@H](O)C[C@@]2(C)[C@H]1CC[C@]2(O)C(=O)CO [hydrocortisone] | reduced redness, but never the psoriasis itself | redness came back

From patent US12648984B2, “Long term treatment of psoriasis” (priority 2023, dated 2026)
